The values that follow come from patent publication US9845297B2, “Antimicrobial compounds and methods of making and using the same” (Melinta Therapeutics, Inc., priority 2009, dated 2017).

The subject of the assay is Eschericia coli strain ATCC25922. Description: standard microdilution assay to determine minimum inhibitory concentrations (MICs). The format is cell-based. Particulars: Escherichia coli, ATCC25922, Eschericia coli strain ATCC25922, standard microdilution assay; read-out: E. coli ATCC25922 MIC. Put shortly: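 Broth microdilution per CLSI protocols, typically 100 µL final volume, against E. coli ATCC25922. MIC values scored as +/− against a cutoff of 16 micrograms/ml.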
On the technique in general: Broth dilution looks for growth in wells or tubes with falling amounts of substance.

Broadly, the MIC is the smallest concentration in the dilution series that meets the test's criterion for growth inhibition.

The structures appear in SMILES notation. Some results are limits rather than exact numbers.

As for `NCc1ccc(-c2c[nH]c(NC(=O)NC3CCCC[C@H]3NCC(F)(F)F)nc2=O)cc1` (stereo partly shown) [Compound 1357], the MIC was over 16 µg/mL.
